Paper PMC2792609, “Effect of methomyl on hepatic mixed function oxidases in rats” (Indian Journal of Pharmacology, 2008)

Assays:
[1] = tested on: red cell ChE; conditions: methomyl aerosol, male rats, repeated inhalation; cited from earlier work
[2] = target: T1, Serum cholinesterase (Rattus norvegicus, UniProt Q9JKC1); test: Serum cholinesterase activity; format: in vivo; conditions: female rats; for Serum cholinesterase: for 3 days; for depression of acetyl cholinesterase activity: 3 days
T1 construct: from tissue; host or cells: rat serum
T1 sequence (Q9JKC1 24-597): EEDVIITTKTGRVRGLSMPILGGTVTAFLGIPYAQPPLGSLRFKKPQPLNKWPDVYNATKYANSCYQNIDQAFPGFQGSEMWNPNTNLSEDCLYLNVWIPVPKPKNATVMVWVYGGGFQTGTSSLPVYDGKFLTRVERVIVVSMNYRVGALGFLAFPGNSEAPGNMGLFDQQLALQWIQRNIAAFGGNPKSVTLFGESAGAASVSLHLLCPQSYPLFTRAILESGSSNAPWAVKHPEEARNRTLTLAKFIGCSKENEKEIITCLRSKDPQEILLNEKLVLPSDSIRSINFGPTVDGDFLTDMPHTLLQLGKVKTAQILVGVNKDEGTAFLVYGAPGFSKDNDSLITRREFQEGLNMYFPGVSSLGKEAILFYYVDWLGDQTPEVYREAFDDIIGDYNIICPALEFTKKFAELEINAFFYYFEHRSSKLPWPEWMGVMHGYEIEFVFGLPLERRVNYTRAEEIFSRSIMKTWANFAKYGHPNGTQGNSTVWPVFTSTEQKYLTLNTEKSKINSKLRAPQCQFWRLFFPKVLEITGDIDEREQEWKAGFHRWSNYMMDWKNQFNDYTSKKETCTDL

[3] = tested on: Hemoglobin; test: Hemoglobin content; format: in vivo, rat; conditions: for decrease in hemoglobin content: 3 days
Description: Group 1 received an equivalent amount of saline and served as control. Animals from group 2, 3, and 4 were given methomyl 1, 2, and 4 mg/kg body weight i.p. respectively, between 8: 00 a.m. and 9:00 a.m., for three consecutive days. […] Animals from group 2, 3, and 4 were injected with 4 mg/kg body weight methomyl for one, three, and five successive days. The volume injected into the rats of body weight 200 g was 1 ml. […]
Hemoglobin was measured using HLS-hemosafe reagent. The color obtained was measured colorimetrically at 530 nm.

[4] = tested on: aspartate aminotransferase (SGOT); test: Serum aspartate aminotransferase (SGOT) activity; format: in vivo, rat; conditions: female rats; for SGOT: for 3 days
[5] = tested on: cytochrome b5; test: Hepatic microsomal cytochrome b5 level; format: in vivo, rat
Description: (§1) Adult male rats (weighing 200-230 g) were divided into four groups of six animals each. Group 1 received an equivalent amount of saline and served as control. Animals from group 2, 3, and 4 were given methomyl 1, 2, and 4 mg/kg body weight i.p. respectively, between 8: 00 a.m. and 9:00 a.m., for three consecutive days. In the second set of experiments, adult male rats were divided into four groups. Animals from group 2, 3, and 4 were injected with 4 mg/kg body weight methomyl for one, three, and five successive days. The volume injected into the rats of body weight 200 g was 1 ml. In another experiment, adult female rats and old male rats (weighing 350-450 g, 8 months old) were divided into two groups of six animals each. Group 2 of each category received methomyl (4 mg/kg body weight, i.p., for three successive days), and group 1 of each category received an equivalent amount of saline and served as the control group.
(§2) The rats were sacrificed by cervical dislocation, 24 hours after the last dose. Their livers were perfused in situ with ice cold 1.15% KCl containing 0.05 mM EDTA, rapidly excised, blotted dry, weighed, minced and homogenized with two volumes of ice cold 0.25 M sucrose solution, in a Potter-Elvehjem type homogenizer. The homogenate was centrifuged at 10,000 × g for 10 min, in a refrigerated centrifuge (REMI C-24). The microsomes were isolated by the procedure described by of Cinti et al.[4] The microsomal pellet was suspended in phosphate buffer (0.1 M, pH 7.4) and the suspension was used for the microsomal enzyme assays. Microsomal protein content was measured by the Biuret method, using bovine serum albumin as the standard.[5]
(§3) The microsomal electron transport components (cytochrome P450 and cytochrome b5) were determined using Hitachi UV-Visible double beam recording spectrophotometer, by the procedure of Omura and Sato.[67] Cytochrome c reductase activity was determined using the method recommended by Masters et al.[8] Aminopyrine N-demethylase activity was assayed according to the procedure described by Schenkman et al.[9] Formaldehyde liberated during N-demethylation was estimated by the procedure described by Nash.[10] Aniline hydroxylase assay was performed using the procedure reported by Govindwar and Dalvi.[11]

[6] = tested on: cytochrome P450; test: Hepatic microsomal cytochrome P450 level; format: in vivo, rat; conditions: for decrease in cytochrome P450 content: 3 days
Description: as §1, §2, §3

[7] = tested on: Male Wistar rats; conditions: 4 mg/kg; cited from earlier work
[8] = tested on: Alkaline phosphatase; test: Serum alkaline phosphatase activity; format: in vivo, rat; conditions: for increase in serum alkaline phosphatase activity: 3 days
Description: as §1, with “Group 2 of each category received methomyl (4 mg/kg body weight, i.p., for three successive days), and group 1 of each category received an equivalent amount of saline and served as the control group.” left out
Alanine aminotransferase and aspartate aminotransferase activity was measured using the Reitman and Frankel[12] method. Alkaline phosphatase activity was measured using Span diagnostic kits.[13] Cholinesterase activity was measured using the kinetic test method of Knedel et al.[14]

[9] = female rats, 1 mg/kg body weight i.p., for 3 days
[10] = female rats, 2 mg/kg body weight i.p., for 3 days
[11] = female rats, 4 mg/kg body weight i.p., for 3 days
[12] = male rats, 1 mg/kg body weight i.p., for three days
[13] = male rats, 2 mg/kg body weight i.p., for three days
[14] = male rats, 4 mg/kg body weight i.p., for three days
[15] = adult female rats, 4 mg/kg body weight, i.p., three days
[16] = adult male rats, 1 mg/kg i.p., for 3 days
[17] = adult male rats, 2 mg/kg i.p., for 3 days
[18] = adult male rats, 4 mg/kg i.p., for 3 days
[19] = adult rats, 4 mg/kg i.p., 1 day of treatment
[20] = adult rats, 4 mg/kg i.p., 3 days of treatment
[21] = adult rats, 4 mg/kg i.p., 5 days of treatment
[22] = old male rat, 4 mg/kg i.p., three days, vs control
[23] = old male rats, 4 mg/kg body weight, i.p., three days

## CNC(=O)ON=C(C)SC [methomyl, S-methyl-N-(methyl carbomyl)-thioacetimidate]
[1]
  effect on red cell ChE: no cumulative effect
[2]; 1 mg/kg body weight i.p.
  Serum cholinesterase: 1343 u/l
[2]; 1 mg/kg i.p.
  depression of acetyl cholinesterase activity: 46%
[2]; 2 mg/kg body weight i.p.
  Serum cholinesterase: 1193 u/l
[2]; 2 mg/kg i.p.
  depression of acetyl cholinesterase activity: 52%
[3]; female rat, 1 mg/kg i.p.
  decrease in hemoglobin content: 21%
[3]; female rat, 2 mg/kg i.p.
  decrease in hemoglobin content: 21%
[3]; female rat, 4 mg/kg i.p.
  decrease in hemoglobin content: 29%
[3]; [9]
  Hemoglobin: 10.06 g/dL
[3]; [10]
  Hemoglobin: 10.00 g/dL
[3]; [11]
  Hemoglobin: 9.06 g/dL
[3]; male rat, 1 mg/kg i.p.
  decrease in hemoglobin content: 16%
[3]; male rat, 2 mg/kg i.p.
  decrease in hemoglobin content: 25%
[3]; male rat, 4 mg/kg i.p.
  decrease in hemoglobin content: 29%
[3]; [12]
  Hemoglobin: 9.60 g/dL
[3]; [13]
  Hemoglobin: 8.60 g/dL
[3]; [14]
  Hemoglobin: 8.10 g/dL
[4]; 1 mg/kg body weight i.p.
  SGOT: 43.5 u/l
[4]; 2 mg/kg body weight i.p.
  SGOT: 46.6 u/l
[4]; 2 mg/kg i.p., 3 days
  Increased activity of aspartate aminotransferase: 26%
[5]; adult female rat, 4 mg/kg i.p., three days, vs control
  decrease in the level of cytochrome b5: 21%
[5]; [15]
  Cytochrome b5: 0.15 nmole/mg protein
[5]; [16]
  Cytochrome b5: 0.16 nmole/mg protein
[5]; [17]
  Cytochrome b5: 0.20 nmole/mg protein
[5]; [18]
  Cytochrome b5: 0.19 nmole/mg protein
[5]; adult male rats, 4 mg/kg i.p., one, three and five days
  change in cytochrome b5: No significant change
[5]; adult male rats, all the three doses (1, 2 and 4 mg/kg i.p., 3 days)
  change in cytochrome b5: No significant change
[5]; [19]
  Cytochrome b5: 0.25 nmole/mg protein
[5]; [20]
  Cytochrome b5: 0.29 nmole/mg protein
[5]; [21]
  Cytochrome b5: 0.28 nmole/mg protein
[5]; [22]
  decrease in cytochrome b5: 51%
[5]; [23]
  Cytochrome b5: 0.20 nmole/mg protein
[6]; [15]
  Cytochrome P450: 0.21 nmole/mg protein
[6]; adult male rats, 1 mg/kg i.p., vs control
  decrease in cytochrome P450 content: 34%
[6]; [16]
  Cytochrome P450: 0.27 nmole/mg protein
[6]; adult male rats, 2 mg/kg i.p., vs control
  decrease in cytochrome P450 content: 34%
[6]; [17]
  Cytochrome P450: 0.27 nmole/mg protein
[6]; adult male rats, 4 mg/kg i.p., vs control
  decrease in cytochrome P450 content: 19%
[6]; adult male rats, 4 mg/kg i.p., five days, vs control
  decrease in the level of cytochrome P450: 37%
[6]; [18]
  Cytochrome P450: 0.33 nmole/mg protein
[6]; adult male rats, 4 mg/kg i.p., one day, vs control
  decrease in the level of cytochrome P450: 37%
[6]; adult male rats, 4 mg/kg i.p., three days, vs control
  decrease in the level of cytochrome P450: 42%
[6]; [19]
  Cytochrome P450: 0.30 nmole/mg protein
[6]; [20]
  Cytochrome P450: 0.28 nmole/mg protein
[6]; [21]
  Cytochrome P450: 0.30 nmole/mg protein
[6]; [22]
  decrease in cytochrome P450: 43%
[6]; [23]
  Cytochrome P450: 0.20 nmole/mg protein
[7]
  duration of maximum severity: about 30 min
  time to development of signs of toxicity: ≤ 2 min
  time to maximum severity (muscle fasciculation and convulsions): 5 to 10 min
  time until free from obvious toxicity: ≤ 90 min
[8]; [9]
  Alkaline phosphatase: 19.0 KA units
[8]; female rats, 1 mg/kg i.p.
  increase in serum alkaline phosphatase activity: 33%
[8]; [10]
  Alkaline phosphatase: 23.0 KA units
[8]; female rats, 2 mg/kg i.p.
  increase in serum alkaline phosphatase activity: 61%
[8]; [11]
  Alkaline phosphatase: 26.7 KA units
[8]; female rats, 4 mg/kg i.p.
  increase in serum alkaline phosphatase activity: 87%
[8]; [12]
  Alkaline phosphatase: 23.4 KA units
[8]; male rats, 1 mg/kg i.p.
  increase in serum alkaline phosphatase activity: 14%
[8]; [13]
  Alkaline phosphatase: 26.4 KA units
[8]; male rats, 2 mg/kg i.p.
  increase in serum alkaline phosphatase activity: 29%
[8]; [14]
  Alkaline phosphatase: 28.6 KA units
[8]; male rats, 4 mg/kg i.p.
  increase in serum alkaline phosphatase activity: 39%
